Measurements taken from US20240150356A1, “Pyrimidine amide compounds and use thereof” (ALPHALA CO., LTD., priority 2019, published 2024).
Like-named read-outs stand apart in the source and are kept apart here.

Test system: Hep3B cells (hepatocellular carcinoma cell line)
Assay: In vitro MTS cell viability assay (NCI-60 methodology), Hep3B
Format: cell-based
Conditions: Homo sapiens, 48 h, 2 days drug incubation, 50% reduction vs time zero, read-out: Hep3B LC50
Method: The cell viability measurement is based on the NCI-60 screening methodology (Nat. Rev. Cancer 6, 813-823, 2006). Briefly, cells are inoculated into 96-well plates at the optimal plating density. After 24 h, one of the two plates for Hep3B cell line is processed to determine a time zero cell viability (Tz) by MTS assay (Promega). Compounds are added over a 2-fold serial dilution to provide a total five drug concentrations plus DMSO control. Plates are incubated for a further 2 days, then measured cell viability by MTS assay [control growth (C) and test growth in the presence of drug at the five concentration levels (Ti)]. The LC50 is calculated from [(Ti−Tz)/Tz]×100=−50, which is the drug concentration resulting in a 50% reduction at the end of the drug treatment as compared to that at the beginning.
The compounds prepared in Tables 1-10 were tested in three in vitro assays, and the results are shown in Tables 1-10 for Hep3B and Table 11 for SW480 and NCI-H460 shown below. Herein, Hep3B refers to hepatocellular carcinoma cell line, SW480 refers to colon adenocarcinoma cell line, and NCI-H460 refers to human lung cancer cell line.
Shown in following Tables 1 to 10 are the structures and in vitro activities of exemplary compounds of formula (I).

How did the LC50 (Table 8, MTS) turn out when `C[C@@H]1C[C@@H](n2ncc3c(NC(=O)c4ccc([N+](=O)[O-])s4)nc(-c4ccc(Cl)nc4)nc32)CC(C)(C)C1` [Compound 8-16, N-(6-(6-chloropyridin-3-yl)-1-((1R,5S)-3,3,5-trimethylcyclohexyl)-1H-pyrazolo[3,4-d]pyrimidin-4-yl)-5-nitrothiophene-2-carboxamide] was run?
The LC50 was 590 nM.

With `O=C(Nc1nc(-c2ccccc2F)nc2c1cnn2C1CCCCC1)c1ccc([N+](=O)[O-])s1` [Compound 10-11, N-(1-cyclohexyl-6-(2-fluorophenyl)-1H-pyrazolo[3,4-d]pyrimidin-4-yl)-5-nitrothiophene-2-carboxamide] as the compound, how does the LC50 (Table 10, MTS) read?
Its LC50 is 1940 nM.

How did the LC50 (Table 10, MTS) turn out when `O=C(Nc1nc(-c2ccnc(F)c2)nc2c1cnn2C1CCCCC1)c1ccc([N+](=O)[O-])s1` [Compound 10-15, N-(1-cyclohexyl-6-(2-fluoropyridin-4-yl)-1H-pyrazolo[3,4-d]pyrimidin-4-yl)-5-nitrothiophene-2-carboxamide] was run?
The LC50 was 1170 nM.

How did the LC50 (Table 5, MTS) turn out when `O=C(Nc1nc(-c2ccccc2F)nc2c1cnn2-c1ccccc1)c1ccc([N+](=O)[O-])s1` [Compound 5-25, N-(6-(2-fluorophenyl)-1-phenyl-1H-pyrazolo[3,4-d]pyrimidin-4-yl)-5-nitrothiophene-2-carboxamide] was run?
The LC50 was 460 nM.

Which LC50 (Table 8, MTS) does the source give for `C[C@@H]1C[C@@H](n2ncc3c(NC(=O)c4ccc([N+](=O)[O-])s4)nc(-c4ccc(F)cc4)nc32)CC(C)(C)C1` [Compound 8-13, N-(6-(4-fluorophenyl)-1-((1R,5S)-3,3,5-trimethylcyclohexyl)-1H-pyrazolo[3,4-d]pyrimidin-4-yl)-5-nitrothiophene-2-carboxamide] here?
The LC50 was 900 nM.

Which LC50 (Table 6, MTS) does the source give for `COCCOc1ccc(-c2nc(NC(=O)c3ccc([N+](=O)[O-])s3)c3cnn(-c4cccc(F)c4)c3n2)cn1` [Compound 6-94, N-(1-(3-fluorophenyl)-6-(6-(2-methoxyethoxy)pyridin-3-yl)-1H-pyrazolo[3,4-d]pyrimidin-4-yl)-5-nitrothiophene-2-carboxamide] here?
Its LC50 is 280 nM.

With `O=C(Nc1nc(-c2ccc(Cl)nc2)nc2c1cnn2Cc1ccccc1)c1ccc([N+](=O)[O-])s1` [Compound 7-15, N-(1-benzyl-6-(6-chloropyridin-3-yl)-1H-pyrazolo[3,4-d]pyrimidin-4-yl)-5-nitrothiophene-2-carboxamide] as the compound, how does the LC50 (Table 7, MTS) read?
The LC50 was 1200 nM.

With `CCOc1ccc(-c2nc(NC(=O)c3ccc([N+](=O)[O-])s3)c3cnn(C4CCC(F)(F)CC4)c3n2)cc1` [Compound 10-59, N-(1-(4,4<fluorocyclohexyl)-4-(4-ethoxyphenyl)-1H-pyrazolo[3,4-d]pyrimidin-4-yl)-5-nitrothiophene-2-carboxamide] as the compound, how does the LC50 (Table 10, MTS) read?
The LC50 was 1280 nM.

Which LC50 (Table 6, MTS) does the source give for `O=C(Nc1nc(-c2ccc(N3CCOCC3)nc2)nc2c1cnn2-c1ccc(F)cc1)c1ccc([N+](=O)[O-])s1` [Compound 6-141, N-(1-(4-fluorophenyl)-6-(6-morpholinopyridin-3-yl)-1H-pyrazolo[3,4-d]pyrimidin-4-yl)-5-nitrothiophene-2-carboxamide] here?
The LC50 was 420 nM.

Which LC50 (Table 6, MTS) does the source give for `C[C@@H]1CN(c2nc(NC(=O)c3ccc([N+](=O)[O-])s3)c3cnn(-c4ccc(F)cc4)c3n2)C[C@H](C)O1` [Compound 6-99, N-(6-((2S,6R)-2,6-dimethylmorpholino)-1-(4-fluorophenyl)-1H-pyrazolo[3,4-d]pyrimidin-4-yl)-5-nitrothiophene-2-carboxamide] here?
The LC50 was 610 nM.

`O=C(Nc1nc(-c2ccc(F)nc2)nc2c1cnn2-c1ccc(F)cc1F)c1ccc([N+](=O)[O-])s1` [Compound 7-13] was tested. Which LC50 (Table 7, MTS) did it give?
The LC50 was 130 nM.

With `O=C(Nc1nc(-c2ccc(OC(F)(F)F)cc2)nc2c1cnn2-c1ccc(F)cc1)c1ccc([N+](=O)[O-])s1` [Compound 6-123, N-(1-(4-fluorophenyl)-6-(4-(trifluoromethoxy)phenyl)-1H-pyrazolo[3,4d]pyrimidin-4-yl)-5-nitrothiophene-2-carboxamide] as the compound, how does the LC50 (Table 6, MTS) read?
The LC50 was 340 nM.

Which LC50 (Table 7, MTS) does the source give for `O=C(Nc1nc(-c2ccc(Cl)cc2)nc2c1cnn2Cc1ccccc1)c1ccc([N+](=O)[O-])s1` [Compound 7-16, N-(1-benzyl-6-(4-chlorophenyl)-1H-pyrazolo[3,4-d]pyrimidin-4-yl)-5-nitrothiophene-2-carboxamide] here?
Its LC50 is > 1250 nM.

With `O=C(Nc1nc(-c2ccc(OCC(F)(F)C(F)F)nc2)nc2c1cnn2C1CCCCC1)c1ccc([N+](=O)[O-])s1` [Compound 10-52, N-(1-cyclohexyl-6-(6-(2,2,3,3-tetrafluoropropoxy)pyridin-3-yl)-1H-pyrazolo[3,4-d]pyrimidin-4-yl)-5-nitrothiophene-2-carboxamide] as the compound, how does the LC50 (Table 10, MTS) read?
Its LC50 is 420 nM.

With `N#C[C@@H]1CCN(c2nc(NC(=O)c3ccc([N+](=O)[O-])s3)c3cnn(-c4ccccc4)c3n2)C1` [Compound 5-5, (R)—N-(6-(3-cyanopyrrolidin-1-yl)-1-phenyl-1H-pyrazolo[3,4-d]pyrimidin-4-yl)-5-nitrothiophene-2-carboxamide] as the compound, how does the LC50 (Table 5, MTS) read?
The LC50 was 500 nM.

For `Cc1csc2c(NC(=O)c3ccc([N+](=O)[O-])s3)nc(-c3cc(F)c(F)c(F)c3)nc12` [Compound 4-9, N-(7-methyl-2-(3,4,5-trifluorophenyl)thieno[3,2-d]pyrimidin-4-yl)-5-nitrothiophene-2-carboxamide], which LC50 (Table 4, MTS) is on record?
The LC50 was > 10000 nM.

`Cn1ncc2c(NC(=O)c3ccc([N+](=O)[O-])s3)nc(-c3ccc(OC(C)(C)C)cc3)nc21` [Compound 1-7, N-(6-(4-(tert-butoxy)phenyl)-1-methyl-1H-pyrazolo[3,4-d]pyrimidin-4-yl)-5-nitrothiophene-2-carboxamide] was tested. Which LC50 (Table 1, MTS) did it give?
Its LC50 is 1510 nM.

How did the LC50 (Table 6, MTS) turn out when `Cc1ccc(-n2ncc3c(NC(=O)c4ccc([N+](=O)[O-])s4)nc(N4CCC[C@H]4CO)nc32)cc1` [Compound 6-3, (S)—N-(6-(2-(hydroxymethyl)pyrrolidin-1-yl)-1-(p-tolyl)-1H-pyrazolo[3,4-d]pyrimidin-4-yl)-5-nitrothiophene-2-carboxamide] was run?
Its LC50 is 870 nM.

For `CC(C)(C)c1ccc(-c2csc3c(NC(=O)c4ccc([N+](=O)[O-])s4)nc(-c4ccc(F)cc4)nc23)cc1` [Compound 4-19, N-(7-(4-(tert-butyl)phenyl)-2-(4-fluorophenyl)thieno[3,2-d]pyrimidin-4-yl)-5-nitrothiophene-2-carboxamide], which LC50 (Table 4, MTS) is on record?
Its LC50 is 670 nM.

Which LC50 (Table 10, MTS) does the source give for `O=C(Nc1nc(-c2ccc(C(F)(F)F)cc2)nc2c1cnn2C1CCC(F)(F)CC1)c1ccc([N+](=O)[O-])s1` [Compound 10-58, N-(1-(4,4-difluorocyclohexyl)-6-(4-(trifluoromethyl)phenyl)-1H-pyrazolo[3,4-d]pyrimidin-4-yl)-5-nitrothiophene-2-carboxamide] here?
Its LC50 is 610 nM.

Which LC50 (Table 10, MTS) does the source give for `O=C(Nc1nc(N2CCC[C@H]2CO)nc2c1cnn2C1CCCCC1)c1ccc([N+](=O)[O-])s1` [Compound 10-3, (S)—N-(1-cyclohexyl-6-(2-(hydroxymethyl)pyrrolidin-1-yl)-1H-pyrazolo[3,4-d]pyrimidin-4-yl)-5-nitrothiophene-2-carboxamide] here?
The LC50 was > 5000 nM.

For `C=CC(=O)N1CC[C@H](n2ncc3c(NC(=O)c4ccc([N+](=O)[O-])s4)nc(-c4ccc(F)nc4)nc32)C1` [Compound 8-3, (S)—N-(1-(1-acryloylpyrrolidin-3-yl)-6-(6-fluoropyridin-3-yl)-1H-pyrazolo[3,4-d]pyrimidin-4-yl)-5-nitrothiophene-2-carboxamide], which LC50 (Table 8, MTS) is on record?
The LC50 was > 3000 nM.

With `Cc1ccc(-c2nc(NC(=O)c3ccc([N+](=O)[O-])s3)c3cnn(C4CCCCC4)c3n2)s1` [Compound 10-7, N-(1-cyclohexyl-6-(5-methylthiophen-2-yl)-1H-pyrazolo[3,4-d]pyrimidin-4-yl)-5-nitrothiophene-2-carboxamide] as the compound, how does the LC50 (Table 10, MTS) read?
The LC50 was 1530 nM.

`CC1(C)CCC(n2ncc3c(NC(=O)c4ccc([N+](=O)[O-])s4)nc(-c4ccc(Cl)cc4F)nc32)CC1` [Compound 10-65, N-(6-(4-chloro-2-fluorophenyl)-1-(4,4-dimethylcyclohexyl)-1H-pyrazolo[3,4-d]pyrimidin-4-yl)-5-nitrothiophene-2-carboxamide] was tested. Which LC50 (Table 10, MTS) did it give?
The LC50 was 580 nM.

How did the LC50 (Table 3, MTS) turn out when `Cc1nn(C)c2c(NC(=O)c3ccc([N+](=O)[O-])s3)nc(-c3cccc(OC(F)(F)F)c3)nc12` [Compound 3-4, N-(1,3-dimethyl-5-(3-(trifluoromethoxy)phenyl)-1H-pyrazolo[4,3-d]pyrimidin-7-yl)-5-nitrothiophene-2-carboxamide] was run?
Its LC50 is 1510 nM.

How did the LC50 (Table 9, MTS) turn out when `CCOC(=O)N1CCC(n2ncc3c(NC(=O)c4ccc([N+](=O)[O-])s4)nc(-c4ccc(F)nc4)nc32)CC1` [Compound 9-2, ethyl 4-(6-(6-fluoropyridin-3-yl)-4-(5-nitrothiophene-2-carboxamide)-1H-pyrazolo [3,4-d]pyrimidin-1-yl)piperidine-1-carboxylate] was run?
Its LC50 is > 5000 nM.

For `O=C(Nc1nc(C2CCNCC2)nc2c1cnn2-c1ccccc1)c1ccc([N+](=O)[O-])s1` [Compound 5-1, 5-nitro-N-(1-phenyl-6-(piperidin-4-yl)-1H-pyrazolo[3,4-d]pyrimidin-4-yl)thiophene-2-carboxamide], which LC50 (Table 5, MTS) is on record?
The LC50 was > 5000 nM.
